In US8946273B2, “S-Triazolyl alpha-mercapto acetanilides as inhibitors of HIV reverse transcriptase” (priority 2011, dated 2015):
Read-outs that look alike come from different tables or passages of the source.

Tests used:
[1] = biological target: T1, wild-type HIV reverse transcriptase (Human immunodeficiency virus type 1 group M subtype B, UniProt P04585); assay: Activity on wild type reverse transcriptase (Table 1 IC50 WT); assay type: biochemical
T1 construct: wild-type and four mutant HIV reverse transcriptases
Method: Using similar methods as described above, 2-[5-bromo-4-(4-cyclopropylnaphthalen-1-yl)-4H-[1,2,4]triazol-3-ylsulfanyl]-N-(2-methyl-4-sulfamoylphenyeacetamide and 2-[5-bromo-4-(4-ethylnaphthalen-1-yl)-4H-[1,2,4]triazol-3-ylsulfanyl]-N-(2-chloro-4-sulfamoylphenyl)-acetamide were synthesized, as were the N-4-carbamyl analog, 2-[5-bromo-4-(4-ethyl-naphthalen-1-yl)-4H-[1,2,4]triazol-3-ylsulfanyl]-N-(2-chloro-4-carbamoylphenyl)-acetamide and the N-4-carboxyl analog. Each of the compounds was tested against a panel of mutant HIV reverse transcriptases, including 20 of the 22 of the mutants that are found in about 2% or more of the patient samples that are resistant to the most widely used non-nucleoside HIV-RT inhibitor efavirenz ((4S)-6-chloro-4-(cyclopropylethynyl)-1,4-dihydro-4-(trifluoromethyl)-2H-3,1-benzoxazin-2-one). […] In most cases both criteria were met. […] […].
Compounds of the invention were tested against the wild-type and four mutant HIV reverse transcriptases. The results are listed in Table 1 as EC50 (nM) and IC50 (nM). In the Table, A represents <50 nM, B is between 50 and 100 nM, and C is >100 nM. ND is not determined.

[2] = biological target: mutant HIV reverse transcriptases (Human immunodeficiency virus type 1, UniProt P12497, Y775L, cells depend on it); assay type: cell-based
[3] = biological target: mutant HIV reverse transcriptases (Human immunodeficiency virus type 1, UniProt P12497, Y768C, cells depend on it); assay type: cell-based
wild type HIV-1 = assay: microbe, parasite or virus in culture; assay type: cell-based, human immunodeficiency virus type 1 (HIV-1)
[4] = Human immunodeficiency virus 1, Hela-JC53, read-out: EC50 WT
[5] = read-out: EC50 WT, wild-type (WT) HIV-1

CC(C)c1ccc(-n2c(SCC(=O)Nc3ccc(S(N)(=O)=O)cc3Cl)nnc2C(F)F)c2ccccc12 [compound 71]
IC50 [1]: < 50 nM | EC50 [2]: < 50 nM | EC50 [3]: < 50 nM | EC50 (wild type HIV-1; [4]): < 50 nM

O=C(O)CNC(=O)c1ccc(NC(=O)CSc2nnc(Br)n2-c2ccc(C3CC3)c3ccccc23)c(Cl)c1 [compound 110]
IC50 [1]: < 50 nM | EC50 [2]: > 100 nM | EC50 [3]: > 100 nM | EC50 (wild type HIV-1; [4]): < 50 nM

Cc1cc(C2CC2)ccc1-n1c(Br)nnc1SCC(=O)Nc1ccc(S(N)(=O)=O)cc1Cl [compound 88]
EC50 [2]: < 50 nM | EC50 [3]: < 50 nM | EC50 (wild type HIV-1; [4]): < 50 nM

COc1ccc2c(C3CC3)ccc(-n3c(Br)nnc3SCC(=O)Nc3ccc(C(=O)O)cc3Cl)c2c1 [compound 34]
EC50 [2]: < 50 nM | EC50 [3]: < 50 nM | EC50 (wild type HIV-1; [4]): < 50 nM

CCc1ccc(-n2c(Br)nnc2SCC(=O)Nc2ccc(C(=O)O)cc2Cl)c2ccccc12 [compound 9]
EC50 [3]: < 50 nM | EC50 (wild type HIV-1; [5]): < 50 nM

N#Cc1cccc2c(-n3c(SCC(=O)Nc4ccc(S(N)(=O)=O)cc4Cl)nnc3C(F)F)cccc12 [compound 96]
EC50 [2]: > 100 nM | EC50 [3]: < 50 nM

NS(=O)(=O)c1ccc(NC(=O)CSc2nnc(Br)n2-c2ccc(C3CC3)c3ccccc23)c(Cl)c1 [compound 42]
EC50 [2]: < 50 nM | EC50 [3]: < 50 nM | EC50 (wild type HIV-1; [5]): < 50 nM

Cc1cc(C)c2ccccc2c1-n1c(CF)nnc1SCC(=O)Nc1ccc(S(N)(=O)=O)cc1Cl [compound 82]
EC50 [3]: < 50 nM | EC50 (wild type HIV-1; [5]): < 50 nM

NS(=O)(=O)c1ccc(NC(=O)CSc2nnc(Br)n2-c2c(Cl)cc(C3CCC3)c3ccccc23)c(Cl)c1 [compound 91]
EC50 [2]: < 50 nM | EC50 [3]: < 50 nM | EC50 (wild type HIV-1; [4]): < 50 nM

CCc1ccc(-n2c(Br)nnc2SCC(=O)Nc2ccc(S(N)(=O)=O)cc2Cl)c2ccccc12 [compound 87]
EC50 [2]: < 50 nM | EC50 [3]: < 50 nM | EC50 (wild type HIV-1; [4]): < 50 nM

CC(Sc1nnc(Br)n1-c1ccc(C2CC2)c2ccccc12)C(=O)Nc1ccc(S(N)(=O)=O)cc1Cl (stereo not shown) [compound 76]
EC50 [2]: > 100 nM | EC50 [3]: 50 to 100 nM

Cc1cc(C(=O)O)ccc1NC(=O)CSc1nnc(Br)n1-c1ccc(C2CC2)c2ccccc12 [compound 35]
IC50 [1]: < 50 nM | EC50 (wild type HIV-1; [4]): < 50 nM

NS(=O)(=O)c1ccc(NC(=O)CSc2nnc(Br)n2-c2ccc(C3CC3)cc2OC(F)(F)F)c(Cl)c1 [compound 90]
EC50 [2]: 50 to 100 nM | EC50 [3]: < 50 nM

Cc1cc(C2CC2)cc(Cl)c1-n1c(Br)nnc1SCC(=O)Nc1ccc(S(N)(=O)=O)cc1Cl [compound 93]
EC50 [2]: < 50 nM | EC50 [3]: < 50 nM

Cc1cc(S(N)(=O)=O)ccc1NC(=O)CSc1nnc(Br)n1-c1ccc(C2CCC2)c2ccccc12 [compound 94]
EC50 [2]: < 50 nM | EC50 [3]: < 50 nM

NS(=O)(=O)c1ccc(NC(=O)CSc2nnc(Br)n2-c2ccc(C3CCC3)c3ccccc23)c(Cl)c1 [compound 95]
EC50 [2]: < 50 nM | EC50 [3]: < 50 nM | EC50 (wild type HIV-1; [4]): < 50 nM

Cc1ccc2c(C)ccc(-n3c(Br)nnc3SCC(=O)Nc3ccc(S(N)(=O)=O)cc3Br)c2c1 [compound 81]
EC50 [2]: < 50 nM | EC50 [3]: < 50 nM | EC50 (wild type HIV-1; [4]): < 50 nM

NS(=O)(=O)c1ccc(NC(=O)CSc2nnc(Br)n2-c2ccc(C3CC3)cc2)c(Cl)c1 [compound 78]
EC50 [2]: > 100 nM | EC50 [3]: < 50 nM

CCCc1ccc(-n2c(Br)nnc2SCC(=O)Nc2ccc(S(N)(=O)=O)cc2C)c2ccccc12 [compound 86]
EC50 [2]: < 50 nM | EC50 [3]: < 50 nM | EC50 (wild type HIV-1; [4]): < 50 nM

COc1ccc2c(C)ccc(-n3c(Br)nnc3SCC(=O)Nc3ccc(C(=O)O)cc3Cl)c2c1 [compound 18]
EC50 [2]: < 50 nM | EC50 [3]: < 50 nM

NS(=O)(=O)c1ccc(NC(=O)CSc2nnc(Cl)n2-c2ccc(C3CC3)c3ccccc23)c(Cl)c1 [compound 89]
EC50 [2]: < 50 nM | EC50 [3]: < 50 nM | EC50 (wild type HIV-1; [4]): < 50 nM

Cc1cc(C)c2ccccc2c1-n1c(CF)nnc1SCC(=O)Nc1ccc(S(N)(=O)=O)cc1Cl [compound 53]
EC50 [2]: < 50 nM | EC50 [3]: < 50 nM | EC50 (wild type HIV-1; [4]): < 50 nM

CCc1ccc(-n2c(Br)nnc2SCC(=O)Nc2ccc(S(N)(=O)=O)cc2Cl)c2c1CCCC2 [compound 79]
EC50 [2]: < 50 nM | EC50 [3]: < 50 nM | EC50 (wild type HIV-1; [4]): < 50 nM
